Four molecules from publication PMC7026418, “The kinase polypharmacology landscape of clinical PARP inhibitors” (Scientific Reports, 2020) can be followed below.

Read-outs that look alike come from different tables or passages of the source.

Holding throughout (assay): biochemical
Parameters in all cases: DiscoveRx KINOMEscan active site-directed competition binding; percent of control kinase bound to immobilised ligand

Assay [1] deals with HIPK2 (Homo sapiens, UniProt Q9H2X6).
In assay [2] the target is BUB1 (Homo sapiens, UniProt O43683).
The target of assay [3] is MAP4K5 (Homo sapiens, UniProt Q9Y4K4).
Assay [4] concerns the target CSF1R (Homo sapiens, UniProt P07333).
Assay [5] deals with T1, ICK (Homo sapiens, UniProt Q9UPZ9).
T1 construct: gene CILK1
T1 sequence (Q9UPZ9 1-632): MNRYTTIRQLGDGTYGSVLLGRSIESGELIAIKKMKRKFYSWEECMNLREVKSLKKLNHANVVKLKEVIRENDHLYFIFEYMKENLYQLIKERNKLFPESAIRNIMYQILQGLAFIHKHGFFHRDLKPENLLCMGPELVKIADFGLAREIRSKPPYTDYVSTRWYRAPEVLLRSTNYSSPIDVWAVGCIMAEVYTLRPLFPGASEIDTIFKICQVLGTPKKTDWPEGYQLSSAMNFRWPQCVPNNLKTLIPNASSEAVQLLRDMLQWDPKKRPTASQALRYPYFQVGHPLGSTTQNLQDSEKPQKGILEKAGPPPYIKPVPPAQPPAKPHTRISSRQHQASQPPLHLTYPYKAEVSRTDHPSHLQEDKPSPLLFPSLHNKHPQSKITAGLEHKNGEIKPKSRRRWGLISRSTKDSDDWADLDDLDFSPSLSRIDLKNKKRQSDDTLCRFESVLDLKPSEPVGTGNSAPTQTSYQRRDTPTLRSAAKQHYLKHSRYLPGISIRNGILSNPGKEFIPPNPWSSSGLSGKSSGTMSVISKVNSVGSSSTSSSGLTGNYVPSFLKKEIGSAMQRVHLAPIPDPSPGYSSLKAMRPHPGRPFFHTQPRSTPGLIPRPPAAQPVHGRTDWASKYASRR

Assay [6] concerns the target PIP5K1C (Homo sapiens, UniProt O60331).
The target of assay [7] is CSNK1A1 (Homo sapiens, UniProt P48729).
Assay [8] concerns the target IGF1R (Homo sapiens, UniProt P08069).
Assay [9] addresses T2, IRAK4 (Homo sapiens, UniProt Q9NWZ3).
T2 sequence (Q9NWZ3 1-460): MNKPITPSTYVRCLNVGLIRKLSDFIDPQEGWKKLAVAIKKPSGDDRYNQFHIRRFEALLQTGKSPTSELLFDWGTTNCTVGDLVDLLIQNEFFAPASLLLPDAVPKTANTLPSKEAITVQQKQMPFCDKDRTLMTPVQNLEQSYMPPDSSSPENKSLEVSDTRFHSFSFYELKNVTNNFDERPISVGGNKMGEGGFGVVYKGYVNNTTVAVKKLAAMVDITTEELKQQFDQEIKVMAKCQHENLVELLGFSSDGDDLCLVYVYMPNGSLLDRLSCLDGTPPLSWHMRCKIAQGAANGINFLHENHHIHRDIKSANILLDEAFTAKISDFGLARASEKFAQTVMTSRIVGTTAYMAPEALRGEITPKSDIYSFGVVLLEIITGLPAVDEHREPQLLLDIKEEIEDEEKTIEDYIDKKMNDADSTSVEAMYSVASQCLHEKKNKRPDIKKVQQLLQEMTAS

In assay [10] the target is T3, MST1 (Homo sapiens, UniProt Q13043).
T3 construct: gene STK4
T3 sequence (Q13043 1-487): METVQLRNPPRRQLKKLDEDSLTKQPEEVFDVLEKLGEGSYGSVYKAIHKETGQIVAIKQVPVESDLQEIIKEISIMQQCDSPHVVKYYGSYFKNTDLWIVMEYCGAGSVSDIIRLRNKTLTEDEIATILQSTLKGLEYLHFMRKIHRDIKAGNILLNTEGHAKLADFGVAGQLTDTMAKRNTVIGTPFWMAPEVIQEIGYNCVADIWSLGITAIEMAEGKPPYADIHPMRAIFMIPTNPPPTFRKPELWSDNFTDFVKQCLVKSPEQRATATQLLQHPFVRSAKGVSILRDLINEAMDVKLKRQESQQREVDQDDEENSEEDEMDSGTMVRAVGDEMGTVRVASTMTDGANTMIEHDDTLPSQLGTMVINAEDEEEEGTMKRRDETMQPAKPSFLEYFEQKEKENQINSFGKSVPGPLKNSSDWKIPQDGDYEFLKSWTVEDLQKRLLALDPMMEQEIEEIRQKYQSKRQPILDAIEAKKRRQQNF

The target in assay [11] is T4, LOK (Homo sapiens, UniProt O94804).
T4 construct: gene STK10

The target of assay [12] is CAMK2A (Homo sapiens, UniProt Q9UQM7).
Assay [13] has as its target MST1R (Homo sapiens, UniProt Q04912).
[14] abbreviates: read-out: Rucaparib / %Ctrl @ 10000nM, binding competition, % of control.
Where [15] appears, read: read-out: Talazoparib (BMN 673) / %Ctrl @ 10000nM.
Where [16] appears, read: read-out: Niraparib (MK-4827) / %Ctrl @ 10000nM.
Where [17] appears, read: read-out: Olaparib / %Ctrl @ 10000nM.

T4 sequence (O94804 whole entry): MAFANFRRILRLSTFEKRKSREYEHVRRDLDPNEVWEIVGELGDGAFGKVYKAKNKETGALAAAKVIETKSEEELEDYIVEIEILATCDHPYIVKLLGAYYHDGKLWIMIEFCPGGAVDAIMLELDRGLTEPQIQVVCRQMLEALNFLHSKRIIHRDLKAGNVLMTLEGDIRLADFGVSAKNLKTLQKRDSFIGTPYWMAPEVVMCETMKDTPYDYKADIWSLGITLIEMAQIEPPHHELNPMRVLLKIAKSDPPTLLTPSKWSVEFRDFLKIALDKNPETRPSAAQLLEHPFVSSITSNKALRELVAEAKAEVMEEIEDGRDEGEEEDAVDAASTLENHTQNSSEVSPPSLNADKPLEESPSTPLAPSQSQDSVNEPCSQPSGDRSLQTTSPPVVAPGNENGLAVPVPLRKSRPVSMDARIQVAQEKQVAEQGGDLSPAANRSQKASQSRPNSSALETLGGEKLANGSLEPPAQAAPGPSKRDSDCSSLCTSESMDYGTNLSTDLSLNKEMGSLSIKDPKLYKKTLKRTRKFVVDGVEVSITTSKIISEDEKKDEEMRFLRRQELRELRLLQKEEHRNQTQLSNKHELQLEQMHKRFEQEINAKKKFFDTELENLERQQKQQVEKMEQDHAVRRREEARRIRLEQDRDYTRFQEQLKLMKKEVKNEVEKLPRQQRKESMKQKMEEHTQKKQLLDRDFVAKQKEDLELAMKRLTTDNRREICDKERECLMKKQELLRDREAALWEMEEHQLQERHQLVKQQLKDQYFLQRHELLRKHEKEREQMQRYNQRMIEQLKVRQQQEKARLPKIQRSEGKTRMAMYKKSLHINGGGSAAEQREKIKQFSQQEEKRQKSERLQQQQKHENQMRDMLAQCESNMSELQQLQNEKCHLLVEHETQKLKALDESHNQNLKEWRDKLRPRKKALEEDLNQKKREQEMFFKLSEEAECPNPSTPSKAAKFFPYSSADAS
CSNK1A1, sequence (P48729 whole entry): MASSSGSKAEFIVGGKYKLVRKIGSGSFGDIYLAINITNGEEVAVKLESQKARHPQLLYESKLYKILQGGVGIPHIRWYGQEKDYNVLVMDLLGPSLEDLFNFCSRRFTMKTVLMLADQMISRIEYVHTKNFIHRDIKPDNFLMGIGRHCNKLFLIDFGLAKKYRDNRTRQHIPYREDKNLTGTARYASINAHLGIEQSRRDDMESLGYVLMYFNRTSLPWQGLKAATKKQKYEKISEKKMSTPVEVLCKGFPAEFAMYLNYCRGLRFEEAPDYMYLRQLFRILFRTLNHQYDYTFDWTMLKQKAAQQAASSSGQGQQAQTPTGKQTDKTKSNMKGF
IGF1R, sequence (P08069 whole entry): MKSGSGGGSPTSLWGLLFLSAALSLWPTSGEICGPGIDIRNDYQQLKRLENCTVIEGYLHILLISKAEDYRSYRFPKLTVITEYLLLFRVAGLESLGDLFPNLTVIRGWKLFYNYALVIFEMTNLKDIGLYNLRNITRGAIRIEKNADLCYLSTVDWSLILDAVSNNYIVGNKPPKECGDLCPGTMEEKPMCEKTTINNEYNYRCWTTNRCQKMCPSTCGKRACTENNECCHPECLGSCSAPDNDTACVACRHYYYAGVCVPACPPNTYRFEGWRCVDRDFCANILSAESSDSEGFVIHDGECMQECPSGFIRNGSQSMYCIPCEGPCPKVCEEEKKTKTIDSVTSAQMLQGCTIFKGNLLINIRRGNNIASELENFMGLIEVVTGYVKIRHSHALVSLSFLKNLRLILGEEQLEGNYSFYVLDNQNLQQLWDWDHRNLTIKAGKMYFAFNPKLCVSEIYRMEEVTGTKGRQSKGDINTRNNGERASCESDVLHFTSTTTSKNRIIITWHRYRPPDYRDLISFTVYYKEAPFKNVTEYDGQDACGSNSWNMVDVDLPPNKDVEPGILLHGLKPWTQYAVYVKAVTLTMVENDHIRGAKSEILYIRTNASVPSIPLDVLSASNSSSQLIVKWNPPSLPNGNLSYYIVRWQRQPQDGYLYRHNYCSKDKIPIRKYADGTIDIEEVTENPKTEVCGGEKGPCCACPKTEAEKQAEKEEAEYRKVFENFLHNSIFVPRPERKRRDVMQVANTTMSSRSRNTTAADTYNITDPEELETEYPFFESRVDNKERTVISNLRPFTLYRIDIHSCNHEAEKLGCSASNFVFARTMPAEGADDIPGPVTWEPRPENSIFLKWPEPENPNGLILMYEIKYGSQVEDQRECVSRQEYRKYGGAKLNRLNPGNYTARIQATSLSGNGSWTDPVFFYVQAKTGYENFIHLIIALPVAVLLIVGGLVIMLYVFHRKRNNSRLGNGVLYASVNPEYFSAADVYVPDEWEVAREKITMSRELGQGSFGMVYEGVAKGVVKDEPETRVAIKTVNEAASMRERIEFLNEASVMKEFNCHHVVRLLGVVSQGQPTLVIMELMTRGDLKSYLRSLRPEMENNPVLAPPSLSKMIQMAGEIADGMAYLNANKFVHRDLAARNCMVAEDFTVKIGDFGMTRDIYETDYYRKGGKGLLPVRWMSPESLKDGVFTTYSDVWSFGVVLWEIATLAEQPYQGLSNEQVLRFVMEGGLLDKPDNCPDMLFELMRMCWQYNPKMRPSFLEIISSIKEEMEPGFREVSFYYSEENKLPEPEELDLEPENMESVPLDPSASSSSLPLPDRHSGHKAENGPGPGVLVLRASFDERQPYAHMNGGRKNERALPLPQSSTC
CAMK2A, sequence (Q9UQM7 whole entry): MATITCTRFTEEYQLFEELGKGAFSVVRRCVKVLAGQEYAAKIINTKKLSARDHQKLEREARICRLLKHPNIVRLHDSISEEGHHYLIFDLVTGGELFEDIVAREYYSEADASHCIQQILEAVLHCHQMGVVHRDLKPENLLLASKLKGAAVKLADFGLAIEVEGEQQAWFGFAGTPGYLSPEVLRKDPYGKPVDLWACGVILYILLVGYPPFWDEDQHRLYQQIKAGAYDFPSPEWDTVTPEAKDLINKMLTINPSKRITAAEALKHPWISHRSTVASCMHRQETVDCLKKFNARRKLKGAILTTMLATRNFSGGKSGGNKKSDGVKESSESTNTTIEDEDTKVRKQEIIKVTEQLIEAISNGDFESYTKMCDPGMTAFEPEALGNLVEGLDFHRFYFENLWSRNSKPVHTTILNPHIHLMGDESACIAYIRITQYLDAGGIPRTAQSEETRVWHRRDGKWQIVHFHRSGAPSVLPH
HIPK2, sequence (Q9H2X6 whole entry): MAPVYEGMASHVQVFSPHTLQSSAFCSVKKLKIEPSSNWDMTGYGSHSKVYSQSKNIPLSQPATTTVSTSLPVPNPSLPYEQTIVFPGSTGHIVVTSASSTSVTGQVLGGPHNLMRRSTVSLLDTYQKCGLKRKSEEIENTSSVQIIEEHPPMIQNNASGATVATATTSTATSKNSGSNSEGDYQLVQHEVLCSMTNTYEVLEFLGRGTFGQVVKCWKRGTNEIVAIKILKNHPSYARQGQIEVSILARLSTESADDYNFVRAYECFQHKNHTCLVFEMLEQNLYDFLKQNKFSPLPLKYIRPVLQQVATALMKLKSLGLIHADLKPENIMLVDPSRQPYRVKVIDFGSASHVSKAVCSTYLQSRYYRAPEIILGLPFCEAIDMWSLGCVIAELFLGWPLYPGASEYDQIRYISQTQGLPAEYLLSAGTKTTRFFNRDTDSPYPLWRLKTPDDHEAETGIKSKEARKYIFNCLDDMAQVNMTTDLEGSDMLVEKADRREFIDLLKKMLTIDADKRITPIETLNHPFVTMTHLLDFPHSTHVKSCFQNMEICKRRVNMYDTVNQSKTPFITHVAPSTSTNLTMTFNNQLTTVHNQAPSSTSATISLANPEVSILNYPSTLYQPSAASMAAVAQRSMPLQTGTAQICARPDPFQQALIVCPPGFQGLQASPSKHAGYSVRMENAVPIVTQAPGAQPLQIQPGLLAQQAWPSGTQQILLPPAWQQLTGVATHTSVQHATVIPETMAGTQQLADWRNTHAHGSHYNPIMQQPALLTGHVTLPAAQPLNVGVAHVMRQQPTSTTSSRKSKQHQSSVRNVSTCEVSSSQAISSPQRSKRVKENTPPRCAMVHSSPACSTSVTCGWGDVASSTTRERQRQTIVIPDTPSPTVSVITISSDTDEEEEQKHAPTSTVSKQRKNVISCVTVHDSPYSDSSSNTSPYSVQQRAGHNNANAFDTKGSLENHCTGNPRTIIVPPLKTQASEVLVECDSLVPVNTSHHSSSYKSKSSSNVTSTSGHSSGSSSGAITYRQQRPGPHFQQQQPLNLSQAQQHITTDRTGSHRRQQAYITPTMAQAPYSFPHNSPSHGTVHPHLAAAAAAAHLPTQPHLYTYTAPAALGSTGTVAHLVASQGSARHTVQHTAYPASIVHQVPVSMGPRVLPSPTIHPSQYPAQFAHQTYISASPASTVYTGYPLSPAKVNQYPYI
PIP5K1C, sequence (O60331 whole entry): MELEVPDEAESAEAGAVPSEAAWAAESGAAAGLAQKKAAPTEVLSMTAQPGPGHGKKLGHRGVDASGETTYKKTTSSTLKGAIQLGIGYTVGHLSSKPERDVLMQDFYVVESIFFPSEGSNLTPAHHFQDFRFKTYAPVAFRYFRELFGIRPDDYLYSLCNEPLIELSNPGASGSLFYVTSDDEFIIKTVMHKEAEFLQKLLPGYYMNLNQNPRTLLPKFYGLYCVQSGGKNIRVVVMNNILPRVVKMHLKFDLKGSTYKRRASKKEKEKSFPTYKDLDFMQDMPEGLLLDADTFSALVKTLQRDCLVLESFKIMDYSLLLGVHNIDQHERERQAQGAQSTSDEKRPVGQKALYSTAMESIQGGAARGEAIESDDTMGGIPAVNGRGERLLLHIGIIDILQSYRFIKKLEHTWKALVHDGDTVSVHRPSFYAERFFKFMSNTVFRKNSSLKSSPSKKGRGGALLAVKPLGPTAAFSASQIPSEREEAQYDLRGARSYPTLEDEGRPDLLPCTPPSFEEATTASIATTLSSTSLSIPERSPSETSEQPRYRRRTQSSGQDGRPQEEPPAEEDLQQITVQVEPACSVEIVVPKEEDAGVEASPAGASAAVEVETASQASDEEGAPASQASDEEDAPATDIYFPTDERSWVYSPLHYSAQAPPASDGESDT

For `CNCc1ccc(-c2[nH]c3cc(F)cc4c3c2CCNC4=O)cc1` [Rucaparib], the percent of control binding at 10 µM in assay [1] (setting [14]) worked out at 5.1%; in assay [2] (setting [14]) it was 48%; in assay [3] (setting [14]) it was 98%; in assay [4] (setting [14]), 94%; in [5] (setting [14]), 64%; in assay [6] (setting [14]) it was 100%. For the same molecule, the percent of control binding at 10 µM in [7] (setting [14]) stood at 39%; in [8] (setting [14]), 98%; in assay [9] (setting [14]), 81%; in assay [10] (setting [14]) it was 85%; in assay [11] (setting [14]) it was 100%; in assay [12] (setting [14]) it was 79%. Moreover, the percent of control binding at 10 µM in assay [13] (setting [14]) turned out to be 91%.

Take `Cn1ncnc1[C@H]1c2n[nH]c(=O)c3cc(F)cc(c23)N[C@@H]1c1ccc(F)cc1` [Talazoparib]: the percent of control binding at 10 µM in assay [1] (setting [15]) worked out at 99%; in assay [2] (setting [15]) it was 100%; in [3] (setting [15]) it was 100%; in [4] (setting [15]), 99%; in assay [5] (setting [15]), 71%; in assay [6] (setting [15]) it was 100%. In addition, the percent of control binding at 10 µM was determined as 73% in assay [7] (setting [15]); 87% in [8] (setting [15]); 85% in [9] (setting [15]); 100% in assay [10] (setting [15]); 100% in assay [11] (setting [15]); 86% in assay [12] (setting [15]). The percent of control binding at 10 µM in assay [13] (setting [15]) amounted to 99%.

Regarding `NC(=O)c1cccc2cn(-c3ccc([C@@H]4CCCNC4)cc3)nc12` [Niraparib], the percent of control binding at 10 µM was determined as 1.1% in [1] (setting [16]); 97% in [2] (setting [16]); 100% in assay [3] (setting [16]); 91% in assay [4] (setting [16]); 63% in [5] (setting [16]); 83% in [6] (setting [16]). The percent of control binding at 10 µM came to 34% in assay [7] (setting [16]); 97% in [8] (setting [16]); 99% in assay [9] (setting [16]); 87% in assay [10] (setting [16]); 86% in assay [11] (setting [16]); 78% in assay [12] (setting [16]). For the same molecule, the percent of control binding at 10 µM in assay [13] (setting [16]) came to 88%.

Take `O=C(c1cc(Cc2n[nH]c(=O)c3ccccc23)ccc1F)N1CCN(C(=O)C2CC2)CC1` [Olaparib]: the percent of control binding at 10 µM in [1] (setting [17]) is 95%; in assay [2] (setting [17]) it was 83%; in assay [3] (setting [17]), 96%; in assay [4] (setting [17]), 95%; in assay [5] (setting [17]) it was 92%; in [6] (setting [17]), 100%. In addition, the percent of control binding at 10 µM in assay [7] (setting [17]) amounted to 81%; in [8] (setting [17]), 95%; in [9] (setting [17]) it was 88%; in assay [10] (setting [17]) it was 97%; in [11] (setting [17]) it was 96%; in [12] (setting [17]) it was 96%. The percent of control binding at 10 µM in assay [13] (setting [17]) is 84%.
